US20250230193A1, “CYCLIC COMPOUND HAVING SELECTIVE KRAS INHIBITORY EFFECT ON HRAS AND NRAS” (CHUGAI SEIYAKU KABUSHIKI KAISHA, priority 2022, published 2025)

Key:
[1] = target: GDP-bound HRAS wild-type protein (Homo sapiens, UniProt P01112); test: Binding to HRAS by surface plasmon resonance (SPR), Single Cycle Kinetics; conditions: KD ratio, GDP-bound HRAS wild-type vs GDP-bound KRAS wild-type, SPR
[2] = target: GDP-bound NRAS wild-type protein (Homo sapiens, UniProt P01111); test: Binding to NRAS by surface plasmon resonance (SPR), Single Cycle Kinetics; conditions: KD ratio, GDP-bound NRAS wild-type vs GDP-bound KRAS wild-type, SPR
GDP-bound NRAS wild-type protein, sequence (P01111 whole entry): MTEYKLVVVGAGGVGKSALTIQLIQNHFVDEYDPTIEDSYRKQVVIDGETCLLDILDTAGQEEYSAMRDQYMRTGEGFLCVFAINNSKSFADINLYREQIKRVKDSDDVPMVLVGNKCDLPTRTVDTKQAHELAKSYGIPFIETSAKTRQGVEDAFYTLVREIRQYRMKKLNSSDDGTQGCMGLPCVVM

GDP-bound HRAS wild-type protein, sequence (P01112 whole entry): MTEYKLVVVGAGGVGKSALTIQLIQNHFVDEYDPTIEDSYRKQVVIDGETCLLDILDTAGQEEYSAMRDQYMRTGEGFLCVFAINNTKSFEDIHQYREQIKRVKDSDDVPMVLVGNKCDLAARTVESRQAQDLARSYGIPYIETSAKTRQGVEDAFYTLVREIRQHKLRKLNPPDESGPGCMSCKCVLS

CCCN(C)C(=O)[C@@H]1CC(=O)N(C)[C@@H](CC(F)F)C(=O)N[C@@H]([C@@H](C)CC)C(=O)N(C)CC(=O)N(C)[C@H]2C/C=C\CCN(C2=O)[C@@H](Cc2ccc(C(F)(F)F)cc2)C(=O)N(C)CC(=O)N[C@@H](CCc2cc(F)c(C(F)(F)F)c(F)c2)C(=O)N2C[C@H](F)C[C@H]2C(=O)NC2(CC(C)(C)C2)C(=O)N(C)[C@@H](C2CCCC2)C(=O)N1C [PP1687]
HRAS/KRAS (ratio of KD value for HRAS to KD value for KRAS) [1]: A (a compound having 10 or more and less than 20 is denoted as A) | NRAS/KRAS (ratio of KD value for NRAS to KD value for KRAS) [2]: A (a compound having 10 or more and less than 20 is denoted as A)

CC[C@H](C)[C@@H]1NC(=O)[C@H](CC(F)(F)F)N(C)C(=O)C[C@@H](C(=O)N(C)C)N(C)C(=O)[C@H](C2CCCC2)N(C)C(=O)C2(CC(C)(C)C2)NC(=O)[C@@H]2C[C@@H](F)CN2C(=O)[C@H](CCc2cc(F)c(C(F)(F)F)c(F)c2)NC(=O)CN(C)C(=O)[C@H](Cc2ccc(C(F)(F)F)cc2)N2CC/C=C\C[C@@H](C2=O)N(C)C(=O)CN(C)C1=O [PP1688]
HRAS/KRAS (ratio of KD value for HRAS to KD value for KRAS) [1]: A (a compound having 10 or more and less than 20 is denoted as A) | NRAS/KRAS (ratio of KD value for NRAS to KD value for KRAS) [2]: A (a compound having 10 or more and less than 20 is denoted as A)

CCC[C@H]1C(=O)N[C@@H]([C@@H](C)CC)C(=O)N(C)CC(=O)N(C)[C@H]2C/C=C\CCN(C2=O)[C@@H](Cc2ccc(C(F)(F)F)cc2)C(=O)N(C)CC(=O)N[C@@H](CCc2cc(F)c(C(F)(F)F)c(F)c2)C(=O)N2C[C@H](F)C[C@H]2C(=O)NC2(CC(C)(C)C2)C(=O)N(C)[C@@H](C2CCCC2)C(=O)N(C)[C@H](C(=O)N(C)C)CC(=O)N1C [PP1689]
HRAS/KRAS (ratio of KD value for HRAS to KD value for KRAS) [1]: B (a compound having 3 or more and less than 10 is denoted as B) | NRAS/KRAS (ratio of KD value for NRAS to KD value for KRAS) [2]: A (a compound having 10 or more and less than 20 is denoted as A)

C#CC[C@H]1C(=O)N[C@@H]([C@@H](C)CC)C(=O)N(C)CC(=O)N(C)[C@H]2C/C=C\CCN(C2=O)[C@@H](Cc2ccc(C(F)(F)F)cc2)C(=O)N(C)CC(=O)N[C@@H](CCc2cc(F)c(C(F)(F)F)c(F)c2)C(=O)N2C[C@H](F)C[C@H]2C(=O)NC2(CC(C)(C)C2)C(=O)N(C)[C@@H](C2CCCC2)C(=O)N(C)[C@H](C(=O)N(C)CC)CC(=O)N1C [PP1691]
HRAS/KRAS (ratio of KD value for HRAS to KD value for KRAS) [1]: A (a compound having 10 or more and less than 20 is denoted as A) | NRAS/KRAS (ratio of KD value for NRAS to KD value for KRAS) [2]: A (a compound having 10 or more and less than 20 is denoted as A)

C#CC[C@H]1C(=O)N[C@@H]([C@@H](C)CC)C(=O)N(C)CC(=O)N(C)[C@H]2C/C=C\CCN(C2=O)[C@@H](Cc2ccc(C(F)(F)F)cc2)C(=O)N(C)CC(=O)N[C@@H](CCc2cc(F)c(C(F)(F)F)c(F)c2)C(=O)N2C[C@H](F)C[C@H]2C(=O)NC2(CC(C)(C)C2)C(=O)N(C)[C@@H](C2CCCC2)C(=O)N(C)[C@H](C(=O)N(C)CCC)CC(=O)N1C [PP1692]
HRAS/KRAS (ratio of KD value for HRAS to KD value for KRAS) [1]: A (a compound having 10 or more and less than 20 is denoted as A) | NRAS/KRAS (ratio of KD value for NRAS to KD value for KRAS) [2]: AA (a compound having 20 or more is denoted as AA)

CCCC[C@H]1C(=O)N[C@@H]([C@@H](C)CC)C(=O)N(C)CC(=O)N(C)[C@H]2C/C=C\CCN(C2=O)[C@@H](Cc2ccc(C(F)(F)F)cc2)C(=O)N(C)CC(=O)N[C@@H](CCc2cc(F)c(C(F)(F)F)c(F)c2)C(=O)N2C[C@H](F)C[C@H]2C(=O)NC2(CC(C)(C)C2)C(=O)N(C)[C@@H](C2CCCC2)C(=O)N(C)[C@H](C(=O)N(C)C)CC(=O)N1C [PP1693]
HRAS/KRAS (ratio of KD value for HRAS to KD value for KRAS) [1]: A (a compound having 10 or more and less than 20 is denoted as A) | NRAS/KRAS (ratio of KD value for NRAS to KD value for KRAS) [2]: AA (a compound having 20 or more is denoted as AA)

CC[C@H](C)[C@@H]1NC(=O)[C@H](CC(C)C)N(C)C(=O)C[C@@H](C(=O)N(C)CC)N(C)C(=O)[C@H](C2CCCC2)N(C)C(=O)C2(CC(C)(C)C2)NC(=O)[C@@H]2C[C@@H](F)CN2C(=O)[C@H](CCc2cc(F)c(C(F)(F)F)c(F)c2)NC(=O)CN(C)C(=O)[C@H](Cc2ccc(C(F)(F)F)cc2)N2CC/C=C\C[C@@H](C2=O)N(C)C(=O)CN(C)C1=O [PP1694]
HRAS/KRAS (ratio of KD value for HRAS to KD value for KRAS) [1]: A (a compound having 10 or more and less than 20 is denoted as A) | NRAS/KRAS (ratio of KD value for NRAS to KD value for KRAS) [2]: A (a compound having 10 or more and less than 20 is denoted as A)

CCCN(C)C(=O)[C@@H]1CC(=O)N(C)[C@@H](COC)C(=O)N[C@@H]([C@@H](C)CC)C(=O)N(C)CC(=O)N(C)[C@H]2C/C=C\CCN(C2=O)[C@@H](Cc2ccc(C(F)(F)F)cc2)C(=O)N(C)CC(=O)N[C@@H](CCc2cc(F)c(C(F)(F)F)c(F)c2)C(=O)N2C[C@H](F)C[C@H]2C(=O)NC2(CC(C)(C)C2)C(=O)N(C)[C@@H](C2CCCC2)C(=O)N1C [PP1696]
HRAS/KRAS (ratio of KD value for HRAS to KD value for KRAS) [1]: A (a compound having 10 or more and less than 20 is denoted as A) | NRAS/KRAS (ratio of KD value for NRAS to KD value for KRAS) [2]: AA (a compound having 20 or more is denoted as AA)

CCCOC[C@H]1C(=O)N[C@@H]([C@@H](C)CC)C(=O)N(C)CC(=O)N(C)[C@H]2C/C=C\CCN(C2=O)[C@@H](Cc2ccc(C(F)(F)F)cc2)C(=O)N(C)CC(=O)N[C@@H](CCc2cc(F)c(C(F)(F)F)c(F)c2)C(=O)N2C[C@H](F)C[C@H]2C(=O)NC2(CC(C)(C)C2)C(=O)N(C)[C@@H](C2CCCC2)C(=O)N(C)[C@H](C(=O)N(C)CC)CC(=O)N1C [PP1697]
HRAS/KRAS (ratio of KD value for HRAS to KD value for KRAS) [1]: A (a compound having 10 or more and less than 20 is denoted as A) | NRAS/KRAS (ratio of KD value for NRAS to KD value for KRAS) [2]: A (a compound having 10 or more and less than 20 is denoted as A)

CCCOC[C@H]1C(=O)N[C@@H]([C@@H](C)CC)C(=O)N(C)CC(=O)N(C)[C@H]2C/C=C\CCN(C2=O)[C@@H](Cc2ccc(C(F)(F)F)cc2)C(=O)N(C)CC(=O)N[C@@H](CCc2cc(F)c(C(F)(F)F)c(F)c2)C(=O)N2C[C@H](F)C[C@H]2C(=O)NC2(CC(C)(C)C2)C(=O)N(C)[C@@H](C2CCCC2)C(=O)N(C)[C@H](C(=O)N(C)CCC)CC(=O)N1C [PP1698]
HRAS/KRAS (ratio of KD value for HRAS to KD value for KRAS) [1]: A (a compound having 10 or more and less than 20 is denoted as A) | NRAS/KRAS (ratio of KD value for NRAS to KD value for KRAS) [2]: A (a compound having 10 or more and less than 20 is denoted as A)

CCCN(C)C(=O)[C@@H]1CC(=O)N(C)[C@@H](CC)C(=O)N[C@@H]([C@@H](C)CC)C(=O)N(C)CC(=O)N(C)[C@H]2C/C=C\CCN(C2=O)[C@@H](Cc2ccc(C(F)(F)F)cc2)C(=O)N(C)CC(=O)N[C@@H](CCc2cc(F)c(C(F)(F)F)c(F)c2)C(=O)N2C[C@H](OCC)C[C@H]2C(=O)NC2(CCC2)C(=O)N(C)[C@@H](C2CCCC2)C(=O)N1C [PP1699]
HRAS/KRAS (ratio of KD value for HRAS to KD value for KRAS) [1]: A (a compound having 10 or more and less than 20 is denoted as A) | NRAS/KRAS (ratio of KD value for NRAS to KD value for KRAS) [2]: A (a compound having 10 or more and less than 20 is denoted as A)

CCCN(C)C(=O)[C@@H]1CC(=O)N(C)[C@@H](CC(F)F)C(=O)N[C@@H]([C@@H](C)CC)C(=O)N(C)CC(=O)N(C)[C@H]2C/C=C\CCN(C2=O)[C@@H](Cc2ccc(C(F)(F)F)cc2)C(=O)N(C)CC(=O)N[C@@H](CCc2cc(F)c(C(F)(F)F)c(F)c2)C(=O)N2C[C@H](OCC)C[C@H]2C(=O)NC2(CCC2)C(=O)N(C)[C@@H](C2CCCC2)C(=O)N1C [PP1700]
HRAS/KRAS (ratio of KD value for HRAS to KD value for KRAS) [1]: A (a compound having 10 or more and less than 20 is denoted as A) | NRAS/KRAS (ratio of KD value for NRAS to KD value for KRAS) [2]: A (a compound having 10 or more and less than 20 is denoted as A)

CCO[C@@H]1C[C@H]2C(=O)NC3(CCC3)C(=O)N(C)[C@@H](C3CCCC3)C(=O)N(C)[C@H](C(=O)N(C)CC)CC(=O)N(C)[C@@H](CC(F)(F)F)C(=O)N[C@@H]([C@@H](C)CC)C(=O)N(C)CC(=O)N(C)[C@H]3C/C=C\CCN(C3=O)[C@@H](Cc3ccc(C(F)(F)F)cc3)C(=O)N(C)CC(=O)N[C@@H](CCc3cc(F)c(C(F)(F)F)c(F)c3)C(=O)N2C1 [PP1701]
HRAS/KRAS (ratio of KD value for HRAS to KD value for KRAS) [1]: A (a compound having 10 or more and less than 20 is denoted as A) | NRAS/KRAS (ratio of KD value for NRAS to KD value for KRAS) [2]: A (a compound having 10 or more and less than 20 is denoted as A)

CCCN(C)C(=O)[C@@H]1CC(=O)N(C)[C@@H](CC(F)(F)F)C(=O)N[C@@H]([C@@H](C)CC)C(=O)N(C)CC(=O)N(C)[C@H]2C/C=C\CCN(C2=O)[C@@H](Cc2ccc(C(F)(F)F)cc2)C(=O)N(C)CC(=O)N[C@@H](CCc2cc(F)c(C(F)(F)F)c(F)c2)C(=O)N2C[C@H](OCC)C[C@H]2C(=O)NC2(CCC2)C(=O)N(C)[C@@H](C2CCCC2)C(=O)N1C [PP1702]
HRAS/KRAS (ratio of KD value for HRAS to KD value for KRAS) [1]: A (a compound having 10 or more and less than 20 is denoted as A) | NRAS/KRAS (ratio of KD value for NRAS to KD value for KRAS) [2]: A (a compound having 10 or more and less than 20 is denoted as A)

C#CC[C@H]1C(=O)N[C@@H]([C@@H](C)CC)C(=O)N(C)CC(=O)N(C)[C@H]2C/C=C\CCN(C2=O)[C@@H](Cc2ccc(C(F)(F)F)cc2)C(=O)N(C)CC(=O)N[C@@H](CCc2cc(F)c(C(F)(F)F)c(F)c2)C(=O)N2C[C@H](OCC)C[C@H]2C(=O)NC2(CCC2)C(=O)N(C)[C@@H](C2CCCC2)C(=O)N(C)[C@H](C(=O)N(C)CCC)CC(=O)N1C [PP1703]
HRAS/KRAS (ratio of KD value for HRAS to KD value for KRAS) [1]: A (a compound having 10 or more and less than 20 is denoted as A) | NRAS/KRAS (ratio of KD value for NRAS to KD value for KRAS) [2]: A (a compound having 10 or more and less than 20 is denoted as A)

CCCC[C@H]1C(=O)N[C@@H]([C@@H](C)CC)C(=O)N(C)CC(=O)N(C)[C@H]2C/C=C\CCN(C2=O)[C@@H](Cc2ccc(C(F)(F)F)cc2)C(=O)N(C)CC(=O)N[C@@H](CCc2cc(F)c(C(F)(F)F)c(F)c2)C(=O)N2C[C@H](OCC)C[C@H]2C(=O)NC2(CCC2)C(=O)N(C)[C@@H](C2CCCC2)C(=O)N(C)[C@H](C(=O)N(C)CCC)CC(=O)N1C [PP1704]
HRAS/KRAS (ratio of KD value for HRAS to KD value for KRAS) [1]: A (a compound having 10 or more and less than 20 is denoted as A) | NRAS/KRAS (ratio of KD value for NRAS to KD value for KRAS) [2]: A (a compound having 10 or more and less than 20 is denoted as A)
